Laboratory results from patent US10307383B2, “Cosmetic composition for preventing or ameliorating hypersensitive skin comprising cedrol or derivatives thereof, or pharmaceutically acceptable salts thereof” (University of Seoul Industry Cooperation Foundation, priority 2017, dated 2019).
In brackets after ≈: the same amount, converted by molar mass.

Columns and labels:
[1] = system: psoriasis induced mice (imiquimod); test: Ear thickness reduction effect in the psoriasis induced mice (PASI); assay type: in vivo, Balb/c mouse; conditions: day 7, 100 mg/kg oral once a day, IMQ applied; IMQ alone 3.5
Description: (§1) To investigate the delayed effect of cedrol, cedryl acetate, and alpha-cedrene on the development of psoriasis, total 5 groups of mice were prepared (8 mice/group). First, the hair of the entire back of the 8-week-old male Balb/c mouse whose immune system was weakened was removed by using a hair clipper (Kimlaube Hair pen 325,327, Rikei, Korea). In the middle of the shaved back of the mouse, 2 mg of imiquimod (3M Health Care Limited, England) was applied in the area of 2 cm×1.5 cm and also 1,125 mg of imiquimod was applied on the right ear of the mouse every day once a day to induce psoriasis.
(§2) The mice prepared above were divided into the distilled water treated group (IMQ), the cedrol treated group (C), the cedryl acetate treated group (CA), and the alpha-cedrene treated group (CE). At this time, the mice were orally treated with distilled water at the concentration of 200 μl/mouse and cedrol or its derivatives at the concentration of 200 μl/mouse (100 mg/kg). The day when distilled water or the compound administration started was recorded as day 0 and the administration was performed once a day for a week, during which photo-recording was performed every day (FIGS. 2A˜2D). In the meantime, instead of applying imiquimod, 40 mg of vaseline was applied on the back of the control group (CONT) and 22.5 mg of vaseline was applied on the right ear of the control group. And the control group was orally administered with distilled water (200 μl/mouse).
Then, the psoriasis area severity index (PASI) was calculated with the range of 1˜4 to confirm the reduction effect of the compounds on the ear thickness.

[2] = system: psoriasis induced mice (imiquimod); test: Skin flair reduction effect in the psoriasis induced mice (PASI); assay type: in vivo, Balb/c mouse
Description: as §1, §2
Then, the psoriasis area severity index (PASI) was calculated to confirm the reduction effect of the compounds on skin flair. Skin flair is a symptom of psoriasis. The application of IMQ can induce skin flair.

[3] = system: psoriasis induced mice (imiquimod); test: Skin pain reduction effect in the psoriasis induced mice (back pinch, mice counted); assay type: in vivo, Balb/c mouse; conditions: 100 mg/kg oral
Description: as §1, §2
When the back of the psoriasis induced mice orally administered with cedrol, cedryl acetate, and alpha-cedrene of Example <2-1> was pinched, those mice who sound painfully with strong rejection were counted. Skin pain is a symptom of psoriasis, and when IMQ is applied, skin pain becomes stronger as time goes by.

[4] = system: IL-17A expression in the spleen; test: Inhibition of IL-17A expression in the spleen of the psoriasis induced mice (real-time PCR); assay type: in vivo, Balb/c mouse; conditions: 100 mg/kg oral, IMQ applied
Description: as §1, §2
The inhibition of IL-17A expression in the spleen of the psoriasis Induced mice according to the oral administration of cedrol, cedryl acetate, and alpha-cedrene was investigated by real-time PCR (polymerase chain reaction).
Particularly, the spleen was extracted from the psoriasis Induced mice orally administered with cedrol, cedryl acetate, and alpha-cedrene of Example <2-1>. Total RNA was extracted from the spleen by the conventional method. To synthesize cDNA, 2 μg of RNA was loaded in 9 μl of DEPC (RNase free water), indicating the dilution of the concentration. 1 μl of oligo dT was added thereto, followed by reaction at 70° C. for 10 minutes. The sample was treated on ice for 5 minutes, to which 2 μl of 10× reaction buffer, 2 μl of dNTP (10 mM each), 1 μl of M-MLV reverse transcriptase, and 5 μl of DNase free water were added to make the total volume of the reaction mixture 20 μl. The mixture was reacted at 42° C. for 1 hour to synthesize cDNA. The reaction mixture was heated at 72° C. for 10 minutes to remove the reverse transcriptase activity. Then, the reaction mixture was stored at −20° C. Real-time PCR was performed by using AMPIGENE qPCR 1-Step Green Kit (Enzo Life Sciences Inc, USA). […]

[5] = system: psoriasis induced mice (imiquimod); test: Recovery effect on ear thickness of the psoriasis induced mice after termination of imiquimod (PASI); assay type: in vivo, Balb/c mouse
Description: (§3) Imiquimod was applied to the psoriasis induced mice which had developed psoriasis for a week in Example <2-1>. The application was stopped 8 days after the application began. The groups CON and IMQ were treated with distilled water, the group C was treated with cedrol, the group CA was treated with cedryl acetate, the group CE was treated with alpha-cedrene alone at the concentration of 100 mg/kg in 200 μl, every day via oral-administration. Day 8 was the day the imiquimod application was stopped, since then the compounds were administered for 1 week once a day, during which photo-recording was performed (FIGS. 13A˜13D).
The psoriasis area severity index (Psoriasis Area Severity Index, PASI) was given from the point 1 to point 4, based on which the recovery effect on the ear thickness was evaluated.

[6] = system: psoriasis induced mice (imiquimod); test: Recovery effect on keratosis of the psoriasis induced mice after termination of imiquimod (PASI); assay type: in vivo, Balb/c mouse
Description: as §3
Then, the psoriasis area severity index (Psoriasis Area Severity Index, PASI) was calculated, based on which the recovery effect on keratosis was evaluated.

IL-17A expression = test: IL-17A inhibition assay in IL-17 luciferase-(LUCPorter) stable reporter cell line; conditions: for Inhibition of IL-17A expression (%) Experiment-1 / Inhibition of IL-17A expression (%) Experiment-2 / Inhibition of IL-17A expression (%) Experiment-3: 6 hours; for expression of IL-17A (luciferase units): control group 2,582 units
[7] = day 8 (imiquimod application stopped), 100 mg/kg oral
[8] = day 15, 100 mg/kg oral once a day after termination of imiquimod
[9] = Homo sapiens, read-out: Average Inhibition (%)

For `CC1=CC[C@@]23C[C@@H]1C(C)(C)[C@@H]2CC[C@H]3C` [alpha-cedrene, Alpha-cedrene], the “mean ear thickness point (PASI)” value [1] was 2.6 point, the “skin flair reduction effect, comparison in words” value ([2]; 100 mg/kg oral, 7 days) was “strongest reduction effect” and the “skin flair mean point (PASI)” value ([2]; day 7, 100 mg/kg oral once a day, IMQ applied, IMQ alone 4.00) was 3.33 point. The “skin pain reduction effect, comparison in words” value ([3]; 7 days) was “strongest reduction effect”, the “number of mice showing skin pain” value ([3]; during the 7 day observation period, IMQ applied) was “no mice” and the “IL-17A expression inhibition effect in the spleen, comparison in words” value [4] was “strongest inhibition effect”. The “IL-17A expression value in the spleen (non-treated control group regarded as value 1)” value ([4]; real-time PCR, IMQ alone 54.9±5.5) was 31.0±3.1, the “PASI reflecting the ear thickness” value [5, 7] was 4.0±0.0 point and the “PASI reflecting the ear thickness” value [5, 8] was 0.7±0.6 point. For the same compound, the PASI reflecting keratosis [6, 7] was 4.0±0.6 point, the PASI reflecting keratosis [6, 8] was 0.3±0.6 point and the “expression of IL-17A, % by the control” value (IL-17A expression; 10 μg/ml) was 79 % by the control. The “Inhibition of IL-17A expression (%) Experiment-1” value (shortened to “Inhibition … (%) Experiment-1”) (IL-17A expression; 10 μg/ml) was 6%, the “Inhibition of IL-17A expression (%) Experiment-2” value (“Inhibition … (%) Experiment-2” for short) (IL-17A expression; 10 μg/ml) was 3% and the “Inhibition of IL-17A expression (%) Experiment-3” value (“Inhibition … (%) Experiment-3” below) (IL-17A expression; 10 μg/ml) was 21%. For the same compound, the “expression of IL-17A (luciferase units)” value (IL-17A expression; 10 μg/ml) was 2,042±114 units, the “expression of IL-17A, % by the control” value (IL-17A expression; 100 μg/ml) was 68 % by the control and the “Inhibition … (%) Experiment-1” value (IL-17A expression; 100 μg/ml) was 21%. For the same compound, the “Inhibition … (%) Experiment-2” value (IL-17A expression; 100 μg/ml) was 11%, the “Inhibition … (%) Experiment-3” value (IL-17A expression; 100 μg/ml) was 32% and the “expression of IL-17A (luciferase units)” value (IL-17A expression; 100 μg/ml) was 1,757±310 units. The “expression of IL-17A, % by the control” value (IL-17A expression; 1,000 μg/ml) was 65 % by the control, the “Inhibition … (%) Experiment-1” value (IL-17A expression; 1000 μg/ml) was 36% and the “Inhibition … (%) Experiment-2” value (IL-17A expression; 1000 μg/ml) was 23%. For the same compound, the “Inhibition … (%) Experiment-3” value (IL-17A expression; 1000 μg/ml) was 35%, the “expression of IL-17A (luciferase units)” value (IL-17A expression; 1,000 μg/ml) was 1,688±64 units and the “suppression of the expression of IL-17A (in words)” value (IL-17A expression; 10, 100, or 1,000 μg/ml) was “dose-dependently”. For the same compound, the inhibition at 10 µg/mL (IL-17A expression; [9]) was 10%, the inhibition at 100 µg/mL (IL-17A expression; [9]) was 21.3% and the inhibition at 1000 µg/mL (IL-17A expression; [9]) was 31.3%. For the same compound, the IC50 (IL-17A expression; Homo sapiens, read-out: IC50 to inhibit the IL-17A expression by 50%) was 1510 µg/mL (≈ 7.37 mM).
